# Measured values taken from US12653799B2, “Compositions and methods for treating Alzheimer's disease” (ELEANORE BENNETT CHARITABLE TRUST #2, priority 2021, dated 2026).
# Columns and labels:
# Akt-1 = target: T1, Akt-1 (Homo sapiens, UniProt P31749); test: Fluorescence polarization, FAM-Aβ42 binding to Akt-1 in solution; details: PS48 10, 20, and 100 μM; results not shown
# T1 construct: purchased Amsbio
# [1] = tested on: LTP in rat prefrontal cortical slices; test: Long term potentiation (LTP) in acute prefrontal cortical slices perfused with Aβ42 oligomers; format: cell-based; details: PS48 10 μM
# Protocol: FIG. 3A. […] LTP was measured as % baseline excitatory postsynaptic potential (EPSP) amplitudes. […] Washout restored LTP (4).
# Minor modifications were made to previous published procedures (Marshall et al., 2017; Molina-Luna et al., 2009). Deeply anesthetized rats (pentobarbital, 50 mg/kg) were decapitated, their brains quickly removed and immersed in cold (5-7° C.), oxygenated (95% O2/5% CO2) artificial cerebrospinal fluid (ACSF) containing: 126 mM NaCl, 3 mM KCl, 1.25 mM NaH2PO4, 1 mM MgSO4, 2 mM CaCl2, 26 mM NaHCO3, 10 mM dextrose. […] Control treatment was DMSO in ACSF (artificial cerebrospinal fluid, 20 μM bicuculline). Extracellular postsynaptic field potentials were recorded using an AxoClamp2B amplifier (Axon instruments) and EX1 differential amplifier (Dagan), and digitized at 10 kHz. Data was acquired using Igor Pro (Wave Metrics) and Neuromatic (neuromatic.thinkrandom.com). The stimulus intensity eliciting 50% of the maximum amplitude (˜32 μA) was used for all measurements before and after LTP induction. Baseline amplitudes were recorded for 20-30 minutes using single field stimuli applied every 30 sec to layer IV-V using concentric bipolar electrodes. Following a stable baseline period, LTP was induced by two sets of high-frequency stimulation (HFS) at 100 Hz, 60 μA (twice stimulus intensity), for 1 sec, 20 sec apart. Extracellular postsynaptic field potentials were measured from layer II-III using glass micropipettes filled with 0.9% NaCl. The amplitude rather than the slope of evoked FPs was used as a measure of the population excitatory synaptic response because in the neocortex the initial slope was contaminated by antidromic stimulation. LTP values were expressed as percentage of mean baseline EPSP±SEM. Paired two-tailed t-tests were used for statistical analysis.
# LTP was measured as % baseline excitatory postsynaptic potential (EPSP) amplitudes. […] Washout restored LTP.
# transgenic mice = test: Contextual and cued fear conditioning; format: in vivo, mouse; details: 16-month-old Tg mice; no significant changes
# Protocol: Next, a series of experiments was performed to assess contextual and cued fear conditioning. 16-month-old mice WT, TG w/vehicle, and TG w/PS48 were first habituated to establish activity levels (300 sec), then presented 3 shock-tone pairings, followed by probes of contextual and cued fear memory. Prior to conditioning to the tone and foot shock, mice in all groups experienced very low levels of freezing (Baseline Freezing Day 1) (FIG. 14A) and the expected freezing to the shock (FIG. 14B).
# After the conditioning procedure, when mice were placed back in the same context but without tone or shock (Day 2), freezing was measured over 8 minutes, the last 4 minutes were quantified.
# On Day 3 the context was changed for 2 minutes (12 bins) and mice were exposed to a continuous tone (cue) used during conditioning for 8 minutes. […] Freezing % was quantified as the number of 10-sec epochs in which there was no beam break over the total number of epochs in the 4-minute period (24). […] Sec FIG. 14D.
# [2] = tested on: Akt phosphorylation in Aβ42-expressing SH-SY5Y cells; test: Akt activation in Aβ42-expressing cells (adenovirus/doxycycline, insulin-stimulated); format: cell-based
# Protocol: Adv TetOn and TRE-Aβ42 viruses were described previously (Magrane et al., 2005). […] Insulin (10 or 40 nM) was added in the last 20-30 min before harvest. […] Cell extracts were prepared in lysis buffer [20 mM Tris-HCl (pH 7.5), 150 mM NaCl, 1 mM EDTA, 1 mM Na3VO4, 1% NP-40, 10% Glycerol, 1 mM Na4P2O7, 1 μg/ml Leupeptin, 1 μg/ml Pepstatin A, 1 μg/ml Aprotinin, 0.1 mM phenylmethylsulfonyl fluoride, and protease inhibitor cocktail (Roche)] and were stored at −80° C. until use.
# Whole-cell extracts were used directly for western blot analysis (20˜30 μg). Extracts from cultured cells prepared in lysis buffer, were diluted into Laemmli sample buffer, heated (95° C., 10 min), cleared by centrifugation, separated on SDS-PAGE and transferred to PVDF membrane (Immobilon-P; Millipore). Membranes were blocked in TBS containing 0.3% Tween-20 and 5% (wt/vol) non-fat dry milk. After incubation with primary antibodies (18 hr at 4° C. in buffer containing 5% bovine serum albumin (BSA) and 0.05% NaN3), blots were washed and incubated in horseradish peroxidase (HRP)-conjugated secondary antibodies (1:2000 dilution; Cell Signaling). Signals were detected using ECL reagents and quantified using a Kodak Image Station 4000R.
# […]. […] […]. […] […].
# [3] = tested on: CREB phosphorylation (pS133) in SH-SY5Y cells; test: Endogenous p-CREB levels in Aβ42-expressing SH-SY5Y cells; details: PS48 50 nM; insulin 250 ng/ml 30 min
# Protocol: Whole cell extracts were fractionated by Western and probed with monoclonal anti-pCREB pS133. […] All cells were stimulated with insulin 250 ng/ml for 30 min before harvest.
# [4] = tested on: Akt Ser 473 phosphorylation in N2a cells; test: Insulin sensitization at subthreshold insulin in N2a cells; details: insulin 3 nM, 15 min; PS48 0.1 to 100 μM, 2 hrs
# cells = details: WST-1
# Protocol: SH-SY5Y cells were washed twice in warm Dulbecco's phosphate-buffered saline (DPBS) and incubated in 1 ml DMEM containing 0.5 mg (3-[4,5-dimethylthiazol-2-yl]-2,5-diphenyltetrazolium bromide) (MTT or WST; Molecular Probes, Eugene, OR) for 2-3 h at 37° C. and 5% CO2. The medium was aspirated and the cells were washed twice with pre-warmed DPBS. The formazan salts were dissolved in 1 ml pure ethanol before use. Cells were homogenized by repetitive pipetting and centrifuged for 5 min at 4500 rpm, and the supernatant collected. Absorbance was read against an ethanol blank at 590 nm.
# [5] = tested on: phospho-GSK (GSK3α/β) in SH-SY5Y cells; test: Cellular phospho-GSK levels in SH-SY5Y cells; format: cell-based; details: PS48 1 μM 0 to 2 hours; 0-100 μM 20 min
# Protocol: FIG. 8B. PS48 over time (1 μM; 0 to 2 hours) and concentration (20 min; 0-100 μM) was applied to SH-SY5Y cells. No changes in cellular phospho-GSK levels were observed.
# APP/PS-1 transgenic mice = test: Oral glucose tolerance test in APP/PS-1 transgenic mice; format: in vivo, mouse; details: TG mice on standard diet, approximately 15.5 months; p<0.05
# Protocol: At the end of phase 2 (active drug) trial, OGTT was administered to the standard diet animals. Animals were approximately 15.5 months at the time of the assay.
# [6] = tested on: Akt Ser473 and mTOR Ser2448 phosphorylation in rat primary cortical neurons; test: Over-activation test in insulin-stimulated primary cortical neurons; details: PS48 0.01 to 100 μM for 2 hrs or 24 hrs; 20 nM insulin
# From the text: Western blots shown above and corresponding quantified results shown below. n=2.
# T1 sequence (P31749 whole entry): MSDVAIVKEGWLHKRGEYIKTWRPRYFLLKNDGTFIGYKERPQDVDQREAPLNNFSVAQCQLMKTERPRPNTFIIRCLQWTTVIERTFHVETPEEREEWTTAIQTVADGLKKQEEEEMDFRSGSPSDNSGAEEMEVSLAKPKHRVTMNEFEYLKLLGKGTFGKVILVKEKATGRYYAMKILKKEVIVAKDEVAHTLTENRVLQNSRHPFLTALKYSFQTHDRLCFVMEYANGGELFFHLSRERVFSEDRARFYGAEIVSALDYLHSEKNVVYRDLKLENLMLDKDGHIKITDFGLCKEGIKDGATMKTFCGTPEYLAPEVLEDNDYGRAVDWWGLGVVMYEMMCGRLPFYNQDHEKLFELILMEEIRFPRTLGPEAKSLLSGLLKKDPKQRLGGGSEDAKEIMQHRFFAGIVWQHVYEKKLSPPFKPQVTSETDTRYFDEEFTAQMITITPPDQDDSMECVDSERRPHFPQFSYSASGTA
structure (smiles),measurement,setting,value
"O=C(O)/C=C(/CCc1ccc(Cl)cc1)c1ccccc1 [PS48, (Z)-5-(4-chlorophenyl)-3-phenylpent-2-enoic acid]",effect of PS48 additions on polarization signal,Akt-1,did not affect either polarization signal
same,LTP (% baseline EPSP amplitude) inhibited by Aβ42 oligomers,"[1]; Aβ42 ADDLs 0.5 μM, at the 1-hour mark after Aβ42 application",significantly improved LTP
same,LTP (% baseline EPSP amplitude) inhibited by Aβ42 oligomers,[1]; by 3 hours,the beneficial effect had disappeared
same,"cue fear conditioning, freezing",transgenic mice,a trend in cue conditioning paradigm favored PS48 treatment
same,concentration at which the dose-dependent reversal became apparent,"[2]; SH-SY5Y and C2C12 myotube cell lines, p<0.01",100 nM
same,reversal of Aβ42 inhibition of insulin-stimulated Akt phosphorylation,"[2]; SH-SY5Y and C2C12 myotube data combined, PS48 100 nM and 1 μM (and 10 μM)",significantly reversed the Aβ42 effect
same,Akt activation (pT308) in β-amyloid-expressing cells,"[2]; SH-SY5Y, PS48 1 μM or insulin 100 nM added 2 hrs before doxycycline, insulin 40 nM 20 min prior to harvest",restored basal Akt activation levels
same,"basal Akt, compound alone","[2]; SH-SY5Y, PS48 1 μM, no Aβ42 induction",did not over-stimulate
same,Akt activity: phosphorylation of GSK3α/β consensus peptide by immunoprecipitated Akt (in vivo-in vitro coupled assay),"[2]; SH-SY5Y, PS48 pre-treatment 50 nM, 2 hrs before doxycycline",prevented the inhibition of peptide phosphorylation by Aβ42
same,p-CREB (pS133) levels reduced by Aβ42 expression,[3],mitigated the Aβ42 effect
same,phosphorylation of Ser 473 at subthreshold insulin,[4],boosting the phosphorylation of Ser 473 to a 20 nM insulin-equivalence response
same,LD50,cells,250 µM
same,resting cellular pGSK levels,[5],no effect
same,response to glucose challenge (OGTT),APP/PS-1 transgenic mice,helped to normalize the glucose response
same,Akt Ser473 and mTOR Ser2448 phosphorylation,[6],did not over-activate Akt Ser473 or affect mTOR Ser2448 phosphorylation
